Experimental data published in patent US9469665B2, “Compound having lysophosphatidylserine receptor function modulation activity” (THE UNIVERSITY OF TOKYO, priority 2013, dated 2016).
Structures can show the parent of a compound that is named as a salt. Each block holds one compound with its values, some of them ahead of it.

Experiments:
mouse P2Y10 = biological target: T1, mouse P2Y10 (Mus musculus, UniProt Q8BFU7); assay: TGFα shedding assay, agonistic activity on P2Y10; format: cell-based; design: key: an activity that is 100 folds that of control compound 1 as +++++; an activity that is 10 folds that of control compound 1 as ++++; the activity of the control compound 1 (LPS18:1) as +++; an activity that is 1/10 as ++; an activity that is 1/100 as +; an activity below that as −; conditions: HEK293 cells transfected with mouse P2Y10 and AP labeled TGFα; activity relative to control compound 1 (LPS18:1) = +++
T1 construct: expressed in transfected cells; host or cells: HEK293
T1 sequence (Q8BFU7 whole entry): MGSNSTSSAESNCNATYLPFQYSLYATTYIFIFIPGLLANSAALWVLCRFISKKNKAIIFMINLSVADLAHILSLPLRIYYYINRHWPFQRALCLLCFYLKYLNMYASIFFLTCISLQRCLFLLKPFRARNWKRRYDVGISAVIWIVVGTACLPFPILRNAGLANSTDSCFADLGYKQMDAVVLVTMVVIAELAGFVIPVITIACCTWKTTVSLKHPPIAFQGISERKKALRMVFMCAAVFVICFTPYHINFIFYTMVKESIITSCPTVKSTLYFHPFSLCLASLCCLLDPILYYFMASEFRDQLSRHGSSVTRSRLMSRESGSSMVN
Procedure: (§1) [Test Example 1]Assay of Agonistic Activity by TGFα Shedding Assay
(§2) HEK293 cells were suspended in the Dulbecco's modified Eagle's medium (DMEM) containing 10% fetal bovine serum (FCS) to exist in an amount of 2.0×10^5 cells/mL, and they were seeded in 60 mm dishes at 4 mL per dish. Transfection of different expression vectors was performed using LipofectAMINE 2000 (Invitrogen) after 24 hours of culture under the presence of 5% CO2. For each 60 mm dish, 1 μg of AP labeled TGFα plasmid vectors were used, and 1 μg of pCAGGS plasmid vectors of mouse GPR34, P2Y10 or GPR174 were used. The plasmid vectors were prepared by methods disclosed in Patent Documents 2 and 5. Note that the AP labeled TGFα is a protein comprising a membrane-bound pro-TGFα whose N terminal end is fused with human placental alkaline phosphatase, and the plasmid vector of the AP labeled TGFα may be produced based on the teaching of Tokumaru et al., J Cell Biol 151, 209-220 (2000). After 24 hours of transfection, the cells were peeled off using trypsin/EDTA, and they were re-suspended in a culture medium to form an amount of 2.0×10^4 cells/well to be seeded to a 96-well plate. Hanks' Balanced Salt Solution (HBSS, containing 5 mM HEPES) was used for the re-suspended solution when stimulating with the compound. After it was left still for 30 min., subject compounds of various concentrations were added and the solutions were left still for another 1 hour under the presence of 5% CO2. The 96-well plate was subjected to centrifugation (190×g, 3 min.), then 80 μl of supernatant was transferred to a different 96-well plate. A reaction buffer (40 mM Tris-HCl (pH 9.5)) containing 10 mM p-nitrophenyl phosphate (p-NPP) was added in an amount of 80 μL to the supernatant and cells. The OD405 was measured with a micro plate reader (background), then after heating at 37° C. for an hour, OD405 was re-measured. The AP activity for each well was obtained by subtracting the background from the second absorbance and plugging the difference into the following formula.
(§3) In addition, the value obtained by subtracting the AP activity (%) of the non-stimulated group was used in the vertical axis to create a graph. The graphs of the test results for Example 3 (lysoPS sn-1-deoxy sn3 C3-ph-o-OBn-m-Oph) and Example 31 (lysoPS sn-1-OMe sn3 C3-ph-o-OBn-m-Oph) are shown in FIG. 1.
(§4) The obtained activity is shown by plotting the compound concentration and AP activity (%), then representing the activity of the control compound 1 (LPS18:1) as +++, an activity that is 10 folds that of control compound 1 as ++++, an activity that is 100 folds that of control compound 1 as +++++, an activity that is 1/10 as ++, and an activity that is 1/100 as +, and an activity below that as −.

mouse GPR174 = biological target: T2, mouse GPR174 (Mus musculus, UniProt Q3U507); assay: TGFα shedding assay, agonistic activity on GPR174; format: cell-based; design: key: an activity that is 100 folds that of control compound 1 as +++++; an activity that is 10 folds that of control compound 1 as ++++; the activity of the control compound 1 (LPS18:1) as +++; an activity that is 1/10 as ++; an activity that is 1/100 as +; an activity below that as −; conditions: HEK293 cells transfected with mouse GPR174 and AP labeled TGFα; activity relative to control compound 1 (LPS18:1) = +++
T2 construct: expressed in transfected cells; host or cells: HEK293
T2 sequence (Q3U507 whole entry): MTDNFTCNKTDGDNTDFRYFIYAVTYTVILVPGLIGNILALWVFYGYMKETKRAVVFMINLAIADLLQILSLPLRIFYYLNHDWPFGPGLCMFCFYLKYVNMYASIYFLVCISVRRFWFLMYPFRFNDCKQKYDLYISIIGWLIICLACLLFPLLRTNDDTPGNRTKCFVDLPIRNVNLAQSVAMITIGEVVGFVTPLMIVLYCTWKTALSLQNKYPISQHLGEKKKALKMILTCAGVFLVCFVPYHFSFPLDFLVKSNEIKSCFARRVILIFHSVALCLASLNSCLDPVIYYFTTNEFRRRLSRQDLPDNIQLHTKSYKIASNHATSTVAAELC
Procedure: as §1, §2, §3, §4

mouse GPR34 = biological target: T3, mouse GPR34 (Mus musculus, UniProt Q9R1K6); assay: TGFα shedding assay, agonistic activity on GPR34; format: cell-based; design: key to GPR34/LPS2 agonistic activity, TGFα shedding assay: an activity that is 100 folds that of control compound 1 as +++++; an activity that is 10 folds that of control compound 1 as ++++; the activity of the control compound 1 (LPS18:1) as +++; an activity that is 1/10 as ++; an activity that is 1/100 as +; an activity below that as −; conditions: HEK293 cells transfected with mouse GPR34 and AP labeled TGFα; activity relative to control compound 1 (LPS18:1) = +++
T3 construct: expressed in transfected cells; host or cells: HEK293
T3 sequence (Q9R1K6 whole entry): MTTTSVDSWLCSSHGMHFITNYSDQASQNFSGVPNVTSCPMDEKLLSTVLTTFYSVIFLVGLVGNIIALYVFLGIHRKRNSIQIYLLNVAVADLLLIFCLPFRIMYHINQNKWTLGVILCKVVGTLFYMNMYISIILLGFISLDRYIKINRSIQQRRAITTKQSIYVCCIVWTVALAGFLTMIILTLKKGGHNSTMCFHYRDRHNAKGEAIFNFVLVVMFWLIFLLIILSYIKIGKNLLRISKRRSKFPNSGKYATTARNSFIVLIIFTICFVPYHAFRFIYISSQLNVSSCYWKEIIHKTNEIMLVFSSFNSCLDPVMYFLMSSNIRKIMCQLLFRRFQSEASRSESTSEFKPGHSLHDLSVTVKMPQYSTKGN
Procedure: as §1, §2, §3, §4

Compound: C[C@H](OP(=O)(O)OC[C@H]1OCCC[C@@H]1OC(=O)CCc1ccccc1OCc1cccc(Oc2ccccc2)c1)[C@H](N)C(=O)O (as salt: TFA) [Example 27, (2S,3S)-2-amino-3-[hydroxyl-((2R,3S)-3-{3-[2-(3-phenoxy-benzyloxy)-phenyl]-propionyloxy}-tetrahydro-pyran-2-ylmethoxy)-phosphoryloxy]-butyric acid]
melting point: 75 to 86 °C

Compound: COC[C@H](COC(=O)CCc1ccccc1OCc1cccc(Oc2ccccc2)c1)OP(=O)(O)OC[C@H](N)C(=O)O (as salt: TFA) [Example 31, (2S)-2-amino-3-[hydroxy-((1R)-1-methoxymethyl-2-{3-[2-(3-phenoxy-benzyloxy)-phenyl]-propionyloxy}-ethoxy)-phosphoryloxy]-propionic acid]
melting point: 51.5 to 53.5 °C

Compound: CCCCCCCCCCCOc1ccccc1CCC(=O)O[C@H]1CCOC[C@@H]1OP(=O)(O)OC[C@H](N)C(=O)O (as salt: TFA) [Example 10, (2S)-2-amino-3-(hydroxy-{(3S,4S)-4-[3-(2-undecyloxy-phenyl)-propionyloxy]-tetrahydro-pyran-3-yloxy}-phosphoryloxy)-propionic acid]
melting point: 96.5 to 98.5 °C

Compound: CCCCCCCCCCCOc1ccccc1CCC(=O)O[C@H]1CCCO[C@@H]1COP(=O)(O)OC[C@H](N)C(=O)O [Example 14, (2S)-2-amino-3-(hydroxy-{(2R,3S)-3-[3-(2-undecyloxy-phenyl)-propionyloxy]-tetrahydro-pyran-2-ylmethoxy}-phosphoryloxy)-propionic acid]
P2Y10/LPS2 agonistic activity, TGFα shedding assay (mouse P2Y10): +
GPR174/LPS3 agonistic activity, TGFα shedding assay (mouse GPR174): −
GPR34/LPS2 agonistic activity, TGFα shedding assay (mouse GPR34): −

Compound: CCCCCCCCCCCOc1ccccc1CCC(=O)O[C@@H]1CCOC[C@H]1OP(=O)(O)OC[C@H](N)C(=O)O [Example 8, (2S)-2-amino-3-((3R,4R)-hydroxy-{4-[3-(2-undecyloxy-phenyl)-propionyloxy]-tetrahydro-pyran-3-yloxy}-phosphoryloxy)-propionic acid]
P2Y10/LPS2 agonistic activity, TGFα shedding assay (mouse P2Y10): +++
GPR174/LPS3 agonistic activity, TGFα shedding assay (mouse GPR174): −
GPR34/LPS2 agonistic activity, TGFα shedding assay (mouse GPR34): +++~++++

Compound: CCCCCCCCCCCOc1ccc(C(C)(C)C)cc1CCC(=O)O[C@H]1COCC[C@@H]1OP(=O)(O)OC[C@H](N)C(=O)O [Example 12, (2S)-2-amino-3-({(3S,4S)-3-[3-(5-tert-butyl-2-undecyloxy-phenyl)-propionyloxy]-tetrahydro-pyran-4-yloxy}-hydroxy-phosphoryloxy)-propionic acid]
P2Y10/LPS2 agonistic activity, TGFα shedding assay (mouse P2Y10): +
GPR174/LPS3 agonistic activity, TGFα shedding assay (mouse GPR174): −
GPR34/LPS2 agonistic activity, TGFα shedding assay (mouse GPR34): −

Compound: N[C@@H](COP(=O)(O)O[C@H]1CCCO[C@@H]1COC(=O)CCc1ccccc1OCc1cccc(Oc2ccccc2)c1)C(=O)O [Example 22, (2S)-2-amino-3-[hydroxyl-((2R,3S)-2-{3-[2-(3-phenoxy-benzyloxy)-phenyl]-propionyloxymethyl}-tetrahydropyran-3-yloxy)-phosphoryloxy]-propionic acid]
P2Y10/LPS2 agonistic activity, TGFα shedding assay (mouse P2Y10): −
GPR174/LPS3 agonistic activity, TGFα shedding assay (mouse GPR174): −
GPR34/LPS2 agonistic activity, TGFα shedding assay (mouse GPR34): +++

Compound: CCCCCCCCCCCOc1ccccc1CCC(=O)OC[C@H]1OCCC[C@@H]1OP(=O)(O)OC[C@H](N)C(=O)O [Example 21, (2S)-2-amino-3-(hydroxyl-{(2R,3S)-2-[3-(2-undecyloxy-phenyl)-propionyloxymethyl]-tetrahydro-pyran-3-yloxy}-phosphoryloxy)-propionic acid]
P2Y10/LPS2 agonistic activity, TGFα shedding assay (mouse P2Y10): ++
GPR174/LPS3 agonistic activity, TGFα shedding assay (mouse GPR174): −
GPR34/LPS2 agonistic activity, TGFα shedding assay (mouse GPR34): −~++

Compound: N[C@@H](COP(=O)(O)O[C@H]1C=CCO[C@@H]1COC(=O)CCc1ccccc1OCc1cccc(Oc2ccccc2)c1)C(=O)O [Example 24, (2S)-2-amino-3-[hydroxy-((2R,3S)-2-{3-[2-(3-phenoxy-benzyloxy)-phenyl]-propionyloxymethyl}-3,6-dihydro-2H-pyran-3-yloxy)-phosphoryloxy]-propionic acid]
P2Y10/LPS2 agonistic activity, TGFα shedding assay (mouse P2Y10): ++~+++
GPR174/LPS3 agonistic activity, TGFα shedding assay (mouse GPR174): −
GPR34/LPS2 agonistic activity, TGFα shedding assay (mouse GPR34): +++

Compound: CCCCCCCCCCCOc1ccccc1CCC(=O)OC[C@H]1OCC=C[C@H]1OP(=O)(O)OC[C@H](N)C(=O)O [Example 25, (2S)-2-amino-3-(hydroxy-{(2R,3R)-2-[3-(2-undecyloxy-phenyl)-propionyloxymethyl]-3,6-dihydro-2H-pyran-3-yloxy}-phosphoryloxy)-propionic acid]
P2Y10/LPS2 agonistic activity, TGFα shedding assay (mouse P2Y10): +++~++++
GPR174/LPS3 agonistic activity, TGFα shedding assay (mouse GPR174): −
GPR34/LPS2 agonistic activity, TGFα shedding assay (mouse GPR34): +~++

Second part, the compound after the results:

melting point: 133.5 to 134.5 °C
Compound: CCCCCCCC/C=C\CCCCCCCC(=O)OC[C@H](C)OP(=O)(O)OC[C@H](N)C(=O)O (as salt: TFA) [Example 2, (9Z)-Octadeca-9-enoic acid (2S)-2-[((2S)-2-amino-2-carboxy-ethoxy)-hydroxy-phosphoryloxy]-propyl ester]

melting point: 70 to 80 °C
Compound: CCCCCCCC/C=C\CCCCCCCC(=O)OC[C@H]1OCCC[C@H]1OP(=O)(O)OC[C@H](N)C(=O)O (as salt: TFA) [Example 15, (9Z)-Octadeca-9-enoic acid (2R,3R)-3-[((2S)-2-amino-2-carboxy-ethoxy)-hydroxy-phosphoryloxy]-tetrahydropyran-2-ylmethyl ester]

P2Y10/LPS2 agonistic activity, TGFα shedding assay (mouse P2Y10): +
GPR174/LPS3 agonistic activity, TGFα shedding assay (mouse GPR174): −
GPR34/LPS2 agonistic activity, TGFα shedding assay (mouse GPR34): +++~++++
Compound: CCCCCCCC/C=C\CCCCCCCC(=O)OC[C@H]1OCCC[C@@H]1OP(=O)(O)OC[C@H](N)C(=O)O [Example 20, (9Z)-Octadeca-9-enoic acid (2R,3S)-3-[((2S)-2-amino-2-carboxy-ethoxy)-hydroxy-phosphoryloxy]-tetrahydro-pyran-2-ylmethyl ester]

P2Y10/LPS2 agonistic activity, TGFα shedding assay (mouse P2Y10): +
GPR174/LPS3 agonistic activity, TGFα shedding assay (mouse GPR174): −
GPR34/LPS2 agonistic activity, TGFα shedding assay (mouse GPR34): +++++
Compound: CCCCCCCC/C=C\CCCCCCCC(=O)OC[C@@H](COCC)OP(=O)(O)OC[C@H](N)C(=O)O [Example 6, (9Z)-Octadeca-9-enoic acid (2R)-2-[((2S)-2-amino-2-carboxy-ethoxy)-hydroxy-phosphoryloxy]-3-ethoxypropyl ester]

P2Y10/LPS2 agonistic activity, TGFα shedding assay (mouse P2Y10): −
GPR174/LPS3 agonistic activity, TGFα shedding assay (mouse GPR174): −
GPR34/LPS2 agonistic activity, TGFα shedding assay (mouse GPR34): ++
Compound: CCCCCCCC/C=C\CCCCCCCC(=O)OC[C@@H](COCc1ccccc1)OP(=O)(O)OC[C@H](N)C(=O)O [Example 7, (9Z)-Octadeca-9-enoic acid (2R)-2-[((2S)-2-amino-2-carboxy-ethoxy)-hydroxy-phosphoryloxy]-3-benzyloxy-propyl ester]

P2Y10/LPS2 agonistic activity, TGFα shedding assay (mouse P2Y10): +
GPR174/LPS3 agonistic activity, TGFα shedding assay (mouse GPR174): −
GPR34/LPS2 agonistic activity, TGFα shedding assay (mouse GPR34): ++++
Compound: CCCCCCCC/C=C\CCCCCCCC(=O)OC[C@@H](COC)OP(=O)(O)OC[C@H](N)C(=O)O [Example 4, (9Z)-Octadeca-9-enoic acid (2R)-2-[((2S)-2-amino-2-carboxy-ethoxy)-hydroxy-phosphoryloxy]-3-methoxy-propyl ester]
